{"source": "patent US12692248B2", "about": "“Solid state forms of (S)-N-(3-(2-(((R)-1-hydroxypropan-2-yl)amino)-6-morpholinopyridin-4-yl)-4-methylphenyl)-3-(2,2,2-trifluoroethyl)pyrrolidine-1-carboxamide and salts thereof” (PIERRE FABRE MEDICAMENT, priority 2021, dated 2026)", "assay_type_in_all_cases": "physicochemical", "key": {"[1]": {"assay": "Dynamic Vapor Sorption (DVS)", "conditions": "for water uptake at 80% RH: 80% relative humidity", "protocol": "Dynamic Vapor Sorption (DVS) Moisture sorption/desorption data was collected on a DVS Intrinsic PLUS (SMS, UK). The sample was placed into a tared sample chamber and automatically weighed. The sample was dried at 40° C./0%0 RH until the dm/dt was less than 0.00200 and cooled to 25° C. [table]"}, "[2]": {"assay": "Slurry experiments of amorphous hydrochloride", "conditions": "one day, XRPD", "protocol": "An amorphous solid state form of (S)—N-(3-(2-(((R)-1-hydroxypropan-2-yl)amino)-6-morpholinopyridin-4-yl)-4-methylphenyl)-3-(2,2,2-trifluoroethyl)pyrrolidine-1-carboxamide hydrochloride is attainable. Amorphous (S)—N-(3-(2-(((R)-1-hydroxypropan-2-yl)amino)-6-morpholinopyridin-4-yl)-4-methylphenyl)-3-(2,2,2-trifluoroethyl)pyrrolidine-1-carboxamide hydrochloride was formed by rapid evaporation of 15 mg of Compound 2 dissolved in 0.5 mL of methanol. The solid was confirmed to be amorphous by XRPD. Slurry of amorphous (S)—N-(3-(2-(((R)-1-hydroxypropan-2-yl)amino)-6-morpholinopyridin-4-yl)-4-methylphenyl)-3-(2,2,2-trifluoroethyl)pyrrolidine-1-carboxamide hydrochloride in 0.5 mL of the solvents in Table 13 were prepared. Each suspension was stirred for one day at 50° C. and at RT. Each suspension was filtered and analyzed by XRPD. In each experiment, conversion from amorphous (S)—N-(3-(2-(((R)-1-hydroxypropan-2-yl)amino)-6-morpholinopyridin-4-yl)-4-methylphenyl)-3-(2,2,2-trifluoroethyl)pyrrolidine-1-carboxamide hydrochloride to crystalline Compound 2 was observed."}, "[3]": {"assay": "Solubility of Compound 1 in solvents", "protocol": "Compound 1 is insoluble in n-heptane and water (<1 mg/mL) and soluble (>100 mg/mL) in methanol, ethanol, acetone, tetrahydrofuran, methyl ethyl ketone, ethyl acetate, acetonitrile, isobutanol, isopropyl alcohol and isopropyl acetate. Compound 1 has a solubility of about 60 mg/mL in methyl t-butyl ether."}, "[4]": {"assay": "Stability at 60° C. and 40° C. at 75% relative humidity for 9 days (UPLC purity, XRPD)", "conditions": "for Purity −3 d: 3 days; for Purity −9 d: 9 days; for XRPD: crystal form check", "protocol": "Compound 1 and Compound 2 were evaluated for stability at 60° C. and 40° C. at 75% relative humidity for 9 days. At 0, 3, and 9 days, the samples were dissolved with diluent to prepare a solution for purity analysis by UPLC. Solid samples were also analyzed by XRPD to check the crystal form."}, "[5]": {"assay": "Comparison dissolution trials in water and biorelevant media", "conditions": "for solubility at 0.5 h: read-out: Solubility (mg/mL) 0.5 h; for solubility at 2 h: read-out: Solubility (mg/mL) 2 h; for solubility at 24 h: read-out: Solubility (mg/mL) 24 h", "protocol": "Comparison dissolution trials were performed on Compounds 1 and 2. About 20 mg of each sample was weighed into a sample vial and then 4 mL of media was added to make a suspension. All suspensions were shaken at 37° C. with a rate of 200 rpm. […] He pH of the filtrate was measured, and the filter cake was analyzed by XRPD. […] In biorelevant dissolution media FaSSIF and FeSSIF, the solubility of the Compound 1 and Compound 2 were similar."}, "[6]": {"conditions": "simulated gastric fluid, thermodynamic from solid, SGF, 37° C."}, "[7]": {"conditions": "thermodynamic from solid, FaSSIF, 37° C."}, "[8]": {"conditions": "thermodynamic from solid, FeSSIF, 37° C."}, "[9]": {"conditions": "thermodynamic from solid, Water, 37° C."}}, "note": "Like-named read-outs stand apart in the source and are kept apart here."}
{"smiles": "Br.Cc1ccc(NC(=O)N2CC[C@@H](CC(F)(F)F)C2)cc1-c1cc(N[C@H](C)CO)nc(N2CCOCC2)c1", "note": "[Compound 3, (S)—N-(3-(2-(((R)-1-hydroxypropan-2-yl)amino)-6-morpholinopyridin-4-yl)-4-methylphenyl)-3-(2,2,2-trifluoroethyl)pyrrolidine-1-carboxamide hydrobromide]", "values": [{"measurement": "hygroscopicity", "setting": "[1]; DVS", "result": "slightly hydroscopic"}, {"measurement": "water uptake at 80% RH", "setting": "[1]; DVS, 25° C.", "result": 0.27, "unit": "%"}, {"measurement": "water uptake at 90% relative humidity", "setting": "[1]; DVS, 25° C., 90% relative humidity", "result": 0.45, "unit": "%"}]}
{"smiles": "Cc1ccc(NC(=O)N2CC[C@@H](CC(F)(F)F)C2)cc1-c1cc(N[C@H](C)CO)nc(N2CCOCC2)c1.Cl", "note": "[amorphous Compound 2, (S)—N-(3-(2-(((R)-1-hydroxypropan-2-yl)amino)-6-morpholinopyridin-4-yl)-4-methylphenyl)-3-(2,2,2-trifluoroethyl)pyrrolidine-1-carboxamide hydrochloride]", "values": [{"measurement": "Resulting Solid State Form", "setting": "[2]; slurry in Acetone, 50° C.", "result": "Form I"}, {"measurement": "Resulting Solid State Form", "setting": "[2]; slurry in Acetone, RT", "result": "Form I"}, {"measurement": "Resulting Solid State Form", "setting": "[2]; slurry in Ethanol, 50° C.", "result": "Form I"}, {"measurement": "Resulting Solid State Form", "setting": "[2]; slurry in Ethanol, RT", "result": "Form I"}, {"measurement": "Resulting Solid State Form", "setting": "[2]; slurry in Ethyl acetate, 50° C.", "result": "Form I"}, {"measurement": "Resulting Solid State Form", "setting": "[2]; slurry in Ethyl acetate, RT", "result": "Form I"}, {"measurement": "Resulting Solid State Form", "setting": "[2]; slurry in Water, 50° C.", "result": "Form I"}, {"measurement": "Resulting Solid State Form", "setting": "[2]; slurry in Water, RT", "result": "Form I"}, {"measurement": "Resulting Solid State Form", "setting": "[2]; slurry in n-Heptane, 50° C.", "result": "Form I"}, {"measurement": "Resulting Solid State Form", "setting": "[2]; slurry in n-Heptane, RT", "result": "Form I"}]}
{"smiles": "Cc1ccc(NC(=O)N2CC[C@@H](CC(F)(F)F)C2)cc1-c1cc(N[C@H](C)CO)nc(N2CCOCC2)c1", "note": "[Compound 1, (S)—N-(3-(2-(((R)-1-hydroxypropan-2-yl)amino)-6-morpholinopyridin-4-yl)-4-methylphenyl)-3-(2,2,2-trifluoroethyl)pyrrolidine-1-carboxamide]", "values": [{"measurement": "hygroscopicity", "setting": "[1]; DVS", "result": "slightly hygroscopic"}, {"measurement": "water uptake at 80% RH", "setting": "[1]; DVS, 25° C.", "result": 2, "unit": "%"}, {"measurement": "solid form after DVS testing", "setting": "[1]; after DVS testing", "result": "remained amorphous"}, {"measurement": "solubility", "setting": "[3]; acetone, organic solvent or mixture", "result": "> 100000", "unit": "µg/mL"}, {"measurement": "solubility", "setting": "[3]; acetonitrile, organic solvent or mixture", "result": "> 100000", "unit": "µg/mL"}, {"measurement": "solubility", "setting": "[3]; ethanol, organic solvent or mixture", "result": "> 100000", "unit": "µg/mL"}, {"measurement": "solubility", "setting": "[3]; ethyl acetate, organic solvent or mixture", "result": "> 100000", "unit": "µg/mL"}, {"measurement": "solubility", "setting": "[3]; isobutanol, organic solvent or mixture", "result": "> 100000", "unit": "µg/mL"}, {"measurement": "solubility", "setting": "[3]; isopropyl acetate, organic solvent or mixture", "result": "> 100000", "unit": "µg/mL"}, {"measurement": "solubility", "setting": "[3]; isopropyl alcohol, organic solvent or mixture", "result": "> 100000", "unit": "µg/mL"}, {"measurement": "solubility", "setting": "[3]; methanol, organic solvent or mixture", "result": "> 100000", "unit": "µg/mL"}, {"measurement": "solubility", "setting": "[3]; methyl ethyl ketone, organic solvent or mixture", "result": "> 100000", "unit": "µg/mL"}, {"measurement": "solubility", "setting": "[3]; methyl t-butyl ether, organic solvent or mixture", "result": "~60000", "unit": "µg/mL"}, {"measurement": "solubility", "setting": "[3]; n-heptane, organic solvent or mixture", "result": "< 1000", "unit": "µg/mL"}, {"measurement": "solubility", "setting": "[3]; tetrahydrofuran, organic solvent or mixture", "result": "> 100000", "unit": "µg/mL"}, {"measurement": "solubility", "setting": "[3]; water", "result": "< 1000", "unit": "µg/mL"}, {"measurement": "Purity −0 d (Area %)", "setting": "[4]; 0 days (initial), UPLC", "result": 99.43, "unit": "Area %"}, {"measurement": "Purity −3 d", "setting": "[4]; 40° C./75% RH, UPLC", "result": 99.42, "unit": "Area %"}, {"measurement": "Purity −9 d", "setting": "[4]; 40° C./75% RH, UPLC", "result": 99.40, "unit": "Area %"}, {"measurement": "XRPD", "setting": "[4]; 40° C./75% RH", "result": "No change"}, {"measurement": "Purity −3 d", "setting": "[4]; 60° C., UPLC", "result": 99.39, "unit": "Area %"}, {"measurement": "Purity −9 d", "setting": "[4]; 60° C., UPLC", "result": 99.42, "unit": "Area %"}, {"measurement": "XRPD", "setting": "[4]; 60° C.", "result": "No change"}, {"measurement": "solid form conversion", "setting": "[5]; FaSSGF, filter cake by XRPD", "result": "converted to Compound 2"}, {"measurement": "solubility of Compound 1 and Compound 2 compared", "setting": "[5]; FaSSIF and FeSSIF", "result": "similar"}, {"measurement": "pH of the filtrate", "setting": "[5]; Water medium", "result": "(pH 6.4)"}, {"measurement": "solubility at 0.5 h", "setting": "[5]; [6]", "result": 0.48, "unit": "mg/mL"}, {"measurement": "solubility at 2 h", "setting": "[5]; [6]", "result": 0.35, "unit": "mg/mL"}, {"measurement": "solubility at 24 h", "setting": "[5]; [6]", "result": 0.83, "unit": "mg/mL"}, {"measurement": "solubility at 0.5 h", "setting": "[5]; [7]", "result": 0.024, "unit": "mg/mL"}, {"measurement": "solubility at 2 h", "setting": "[5]; [7]", "result": 0.022, "unit": "mg/mL"}, {"measurement": "solubility at 24 h", "setting": "[5]; [7]", "result": 0.018, "unit": "mg/mL"}, {"measurement": "solubility at 0.5 h", "setting": "[5]; [8]", "result": 0.15, "unit": "mg/mL"}, {"measurement": "solubility at 2 h", "setting": "[5]; [8]", "result": 0.17, "unit": "mg/mL"}, {"measurement": "solubility at 24 h", "setting": "[5]; [8]", "result": 0.15, "unit": "mg/mL"}, {"measurement": "solubility at 0.5 h", "setting": "[5]; [9]", "result": 0.004, "unit": "mg/mL"}, {"measurement": "solubility at 2 h", "setting": "[5]; [9]", "result": 0.004, "unit": "mg/mL"}, {"measurement": "solubility at 24 h", "setting": "[5]; [9]", "result": 0.009, "unit": "mg/mL"}, {"measurement": "solubility", "setting": "[5]; thermodynamic from solid, water, 37° C.", "result": "< 9", "unit": "µg/mL"}]}
